Measured values from patent publication US20020198254A1, “Polyamide analogs” (priority 2000, published 2002).
In brackets after ≈: the same amount, converted by molar mass. Where two headings read alike, the source gives them in different places.

How the values were obtained:
Format in all cases: cell-based
Bacillus cereus = experiment: MIC assay, B. cereus; conditions: CAMHB, 16 h
Experimental: (§1) These assays are adapted from NCCLS protocols M7-A4 and M27-A (NCCLS vol 17:9 and vol 17:2) as modified by Sandven, S. Clin. Micro. (1999) 37:12, p.3856-3859. MIC values for Aspergillus fumigatus were determined using NCCLS protocol M38-P.
(§2) All compounds were dissolved in 100% DMSO to a stock concentration of 10 mM and use fresh or stored at −80° C. Stock compounds were kept frozen until needed and used freshly with no more then one freeze-thaw cycle. When used for test purposes, compounds were diluted in the appropriate media depending on the organism being tested.
(§3) For yeast and aspergillus species, seven 1:2 serial dilutions of compound in appropriate media buffered with MOPS at pH 7.0 were prepared such that the final starting test compound concentrations were 50.0 uM for yeast and 50 uM aspergillus species. For bacteria, dilutions were made in growth media used for the particular bacteria being tested.
(§4) Inoculums are made in the same manner as yeast except all dilutions are made in normal saline, with a final dilution of 1:200 and an inoculum of 10 μL. VRE are vancomycin resistant enterococci, BM4147 and UCD-3 represent two different sources of VRE. MRSA are […] resistant Staphylococcus Aureus.

[1] = system: VRE-CSUC4 (vancomycin resistant enterococci); experiment: MIC assay, VRE strain CSUC-4; conditions: for MIC: Enterococcus, VRE
Experimental: as §1, §2, §3, §4

Candida albicans = experiment: MIC assay, yeast C. albicans; conditions: RPMI, 48 h, Alamar Blue
Pseudomonas aeruginosa = experiment: MIC assay, P. aeruginosa; conditions: CAMHB, 16 h
Experimental: as §1, §2, §3, §4

Moraxella catarrhalis = experiment: MIC assay, M. catarrhalis; conditions: BHI, 16 h
Experimental: as §1, §2, §3, §4

Streptococcus pneumoniae = experiment: MIC assay, S. pneumoniae; conditions: CAMHB + 5% LHB, 24 h
Experimental: as §1, §2, §3, §4

[2] = system: VRE-UL17 (vancomycin resistant enterococci); experiment: MIC assay, VRE strain UL-17; conditions: for MIC: Enterococcus, VRE
Experimental: as §1, §2, §3, §4

Haemophilus influenzae = experiment: MIC assay, H. influenzae; conditions: HTM, 24 h
Experimental: as §1, §2, §3, §4

Staphylococcus aureus = experiment: MIC assay, S. aureus; conditions: CAMHB, 16 h
Experimental: as §1, §2, §3, §4

[3] = system: VRE-UCD3 (vancomycin resistant enterococci); experiment: MIC assay, VRE strain UCD-3; conditions: for MIC: Enterococcus, VRE
Experimental: as §1, §2, §3, §4

[4] = system: VRE-BM4147 (vancomycin resistant enterococci); experiment: MIC assay, VRE strain BM4147; conditions: for MIC: Enterococcus, VRE
Experimental: as §1, §2, §3, §4

## Cn1cc(NC(=O)c2cc(NC(=O)CN)cn2C)cc1C(=O)NCCCNCCCNC(=O)c1cc(NC(=O)c2cc(NC(=O)CN)cn2C)cn1C [Compound 113]
Bacillus cereus; Bacillus cereus, read-out: MIC Assay Other Strains: B. cereus
  MIC: 11.4 µM (≈ 8.37 µg/mL)
[1]; 25 μg/mL Vancomycin - 24 h, read-out: MIC Assay VRE Strains: CSUC-4 van25
  MIC: 45.5 µM
[1]; No vancomycin - 16 h, read-out: MIC Assay VRE Strains: CSUC-4 van0
  MIC: 22.7 µM (≈ 16.7 µg/mL)
Candida albicans; Candida albicans
  MIC: > 44.4 µM
Pseudomonas aeruginosa; Pseudomonas aeruginosa, read-out: MIC Assay Other Strains: P. aeruginosa
  MIC: > 45.5 µM
Moraxella catarrhalis; Moraxella catarrhalis, read-out: MIC Assay Other Strains: M. catarrhalis
  MIC: 5.7 µM (≈ 4.18 µg/mL)
Streptococcus pneumoniae; Streptococcus pneumoniae, read-out: MIC Assay Other Strains: S. pneumoniae
  MIC: 11.4 µM
[2]; 25 μg/mL Vancomycin - 24 h, read-out: MIC Assay VRE Strains: UL-17 van25
  MIC: 22.7 µM
[2]; No vancomycin - 16 h, read-out: MIC Assay VRE Strains: UL-17 van0
  MIC: > 45.5 µM
Haemophilus influenzae; Haemophilus influenzae, read-out: MIC Assay Other Strains: H influenzae
  MIC: > 45.5 µM
Staphylococcus aureus; Staphylococcus aureus, read-out: MIC Assay Other Strains: S. aureus
  MIC: > 45.5 µM
[3]; 25 μg/mL Vancomycin - 24 h, read-out: MIC Assay VRE Strains: UCD-3 van25
  MIC: 11.4 µM
[3]; No vancomycin - 16 h, read-out: MIC Assay VRE Strains: UCD-3 van0
  MIC: 22.7 µM (≈ 16.7 µg/mL)
[4]; 25 μg/mL Vancomycin - 24 h, read-out: MIC Assay VRE Strains: BM4147 van25
  MIC: 22.7 µM
[4]; No vancomycin - 16 h, read-out: MIC Assay VRE Strains: BM4147 van0
  MIC: 22.7 µM (≈ 16.7 µg/mL)

## Cn1cc(NC(=O)c2cc(NC(=O)c3cc(NC(=O)CN)cn3C)cn2C)cc1C(=O)NCCCN(CCCN)CCCNC(=O)c1cc(NC(=O)c2cc(NC(=O)c3cc(NC(=O)CN)cn3C)cn2C)cn1C [Compound 66, N,N-bis-{4-{4-[(NH2CH2CONH)-1-methyl-1H-pyrrol-2-yl-carbonylamino]-1-methyl-1H-pyrrol-2-ylcarbonylamino}-1-methyl-1H-pyrrol-2-yl-carbonylaminopropyl}-N-(3-aminoethylpropyl)amine]
Bacillus cereus
  MIC Assay Other Strains: B. cereus: >45.5 µM
[1]; 25 μg/mL Vancomycin - 24 h
  MIC Assay VRE Strains: CSUC-4 van25: >45.5 µM
Candida albicans
  MIC Assay C. Albicans: >44.4 µM
Pseudomonas aeruginosa
  MIC Assay Other Strains: P. aeruginosa: >45.5 µM
Moraxella catarrhalis
  MIC Assay Other Strains: M. catarrhalis: >45.5 µM
Streptococcus pneumoniae
  MIC Assay Other Strains: S. pneumoniae: >45.5 µM
[2]; 25 μg/mL Vancomycin - 24 h
  MIC Assay VRE Strains: UL-17 van25: >45.5 µM
Haemophilus influenzae
  MIC Assay Other Strains: H influenzae: >45.5 µM
Staphylococcus aureus
  MIC Assay Other Strains: S. aureus: >45.5 µM
[3]; 25 μg/mL Vancomycin - 24 h
  MIC Assay VRE Strains: UCD-3 van25: >45.5 µM
[4]; 25 μg/mL Vancomycin - 24 h
  MIC Assay VRE Strains: BM4147 van25: >45.5 µM

## Cn1cc(NC(=O)c2cc(NC(=O)CN)cn2C)cc1C(=O)NCCCN(CCCNC(=O)c1cc(NC(=O)c2cc(NC(=O)CN)cn2C)cn1C)C(=O)OCc1ccccc1 [Compound 42]
Bacillus cereus
  MIC Assay Other Strains: B. cereus: 11.4 µM (≈ 9.89 µg/mL)
[1]; 25 μg/mL Vancomycin - 24 h
  MIC Assay VRE Strains: CSUC-4 van25: 22.7 µM
[1]; No vancomycin - 16 h
  MIC Assay VRE Strains: CSUC-4 van0: 22.7 µM (≈ 19.7 µg/mL)
Candida albicans
  MIC Assay C. Albicans: >44.4 µM
Pseudomonas aeruginosa
  MIC Assay Other Strains: P. aeruginosa: >45.5 µM
Moraxella catarrhalis
  MIC Assay Other Strains: M. catarrhalis: 11.4 µM (≈ 9.89 µg/mL)
Streptococcus pneumoniae
  MIC Assay Other Strains: S. pneumoniae: 1.4 µM
[2]; 25 μg/mL Vancomycin - 24 h
  MIC Assay VRE Strains: UL-17 van25: 45.5 µM
[2]; No vancomycin - 16 h
  MIC Assay VRE Strains: UL-17 van0: 22.7 µM (≈ 19.7 µg/mL)
Haemophilus influenzae
  MIC Assay Other Strains: H influenzae: >45.5 µM
Staphylococcus aureus
  MIC Assay Other Strains: S. aureus: >45.5 µM
[3]; 25 μg/mL Vancomycin - 24 h
  MIC Assay VRE Strains: UCD-3 van25: 45.5 µM
[3]; No vancomycin - 16 h
  MIC Assay VRE Strains: UCD-3 van0: 45.5 µM (≈ 39.5 µg/mL)
[4]; 25 μg/mL Vancomycin - 24 h
  MIC Assay VRE Strains: BM4147 van25: >45.5 µM
[4]; No vancomycin - 16 h
  MIC Assay VRE Strains: BM4147 van0: >45.5 µM

## Cn1cc(NC(=O)c2cc(NC(=O)CN)cn2C)cc1C(=O)NCCNC(=O)c1cc(NC(=O)c2cc(NC(=O)CN)cn2C)cn1C [Compound 10, bis-1,2-{4-[(NH2CH2CONH)-1-methyl-1H-pyrrol-2-yl-carbonylamino]-1-methyl-1H-pyrrol-2-ylcarbonylamino}ethane]
Bacillus cereus
  MIC Assay Other Strains: B. cereus: >45.5 µM
[1]; 25 μg/mL Vancomycin - 24 h
  MIC Assay VRE Strains: CSUC-4 van25: >45.5 µM
[1]; No vancomycin - 16 h
  MIC Assay VRE Strains: CSUC-4 van0: >45.5 µM
Candida albicans
  MIC Assay C. Albicans: >44.4 µM
Pseudomonas aeruginosa
  MIC Assay Other Strains: P. aeruginosa: >45.5 µM
Moraxella catarrhalis
  MIC Assay Other Strains: M. catarrhalis: >45.5 µM
Streptococcus pneumoniae
  MIC Assay Other Strains: S. pneumoniae: >45.5 µM
[2]; 25 μg/mL Vancomycin - 24 h
  MIC Assay VRE Strains: UL-17 van25: >45.5 µM
[2]; No vancomycin - 16 h
  MIC Assay VRE Strains: UL-17 van0: >45.5 µM
Haemophilus influenzae
  MIC Assay Other Strains: H influenzae: >45.5 µM
Staphylococcus aureus
  MIC Assay Other Strains: S. aureus: >45.5 µM
[3]; 25 μg/mL Vancomycin - 24 h
  MIC Assay VRE Strains: UCD-3 van25: >45.5 µM
[3]; No vancomycin - 16 h
  MIC Assay VRE Strains: UCD-3 van0: >45.5 µM
[4]; 25 μg/mL Vancomycin - 24 h
  MIC Assay VRE Strains: BM4147 van25: >45.5 µM
[4]; No vancomycin - 16 h
  MIC Assay VRE Strains: BM4147 van0: >45.5 µM

## Cn1cc(NC(=O)CN)cc1C(=O)Nc1cc(C(=O)NC2CCC(CC3CCC(NC(=O)c4cc(NC(=O)c5cc(NC(=O)CN)cn5C)cn4C)CC3)CC2)n(C)c1 (centres unmarked) [Compound 21]
Bacillus cereus
  MIC Assay Other Strains: B. cereus: >45.5 µM
[1]; 25 μg/mL Vancomycin - 24 h
  MIC Assay VRE Strains: CSUC-4 van25: >45.5 µM
[1]; No vancomycin - 16 h
  MIC Assay VRE Strains: CSUC-4 van0: >45.5 µM
Candida albicans
  MIC Assay C. Albicans: >44.4 µM
Pseudomonas aeruginosa
  MIC Assay Other Strains: P. aeruginosa: >45.5 µM
Moraxella catarrhalis
  MIC Assay Other Strains: M. catarrhalis: >45.5 µM
Streptococcus pneumoniae
  MIC Assay Other Strains: S. pneumoniae: >45.5 µM
[2]; 25 μg/mL Vancomycin - 24 h
  MIC Assay VRE Strains: UL-17 van25: >45.5 µM
[2]; No vancomycin - 16 h
  MIC Assay VRE Strains: UL-17 van0: >45.5 µM
Haemophilus influenzae
  MIC Assay Other Strains: H influenzae: >45.5 µM
Staphylococcus aureus
  MIC Assay Other Strains: S. aureus: >45.5 µM
[3]; 25 μg/mL Vancomycin - 24 h
  MIC Assay VRE Strains: UCD-3 van25: >45.5 µM
[3]; No vancomycin - 16 h
  MIC Assay VRE Strains: UCD-3 van0: >45.5 µM
[4]; 25 μg/mL Vancomycin - 24 h
  MIC Assay VRE Strains: BM4147 van25: >45.5 µM
[4]; No vancomycin - 16 h
  MIC Assay VRE Strains: BM4147 van0: >45.5 µM

## Cn1cc(NC(=O)c2cc(NC(=O)CN)cn2C)cc1C(=O)NCCCN(CCCNC(=O)c1cc(NC(=O)c2cc(NC(=O)CN)cn2C)cn1C)CCCNC(=O)c1cc(NC(=O)c2cc(NC(=O)CN)cn2C)cn1C [Compound 74, tris-{4-[(NH2CH2CONH)-1-methyl-1H-pyrrol-2-yl-carbonylamino]-1-methyl-1H-pyrrol-2-yl-carbonylaminopropyl}amine]
Bacillus cereus
  MIC Assay Other Strains: B. cereus: 11.4 µM (≈ 12.5 µg/mL)
[1]; 25 μg/mL Vancomycin - 24 h
  MIC Assay VRE Strains: CSUC-4 van25: 22.7 µM
[1]; No vancomycin - 16 h
  MIC Assay VRE Strains: CSUC-4 van0: 22.7 µM (≈ 24.8 µg/mL)
Candida albicans
  MIC Assay C. Albicans: >44.4 µM
Pseudomonas aeruginosa
  MIC Assay Other Strains: P. aeruginosa: >45.5 µM
Moraxella catarrhalis
  MIC Assay Other Strains: M. catarrhalis: 1.4 µM (≈ 1.53 µg/mL)
Streptococcus pneumoniae
  MIC Assay Other Strains: S. pneumoniae: 2.8 µM
[2]; 25 μg/mL Vancomycin - 24 h
  MIC Assay VRE Strains: UL-17 van25: 22.7 µM
[2]; No vancomycin - 16 h
  MIC Assay VRE Strains: UL-17 van0: 11.4 µM (≈ 12.5 µg/mL)
Haemophilus influenzae
  MIC Assay Other Strains: H influenzae: >45.5 µM
Staphylococcus aureus
  MIC Assay Other Strains: S. aureus: 22.7 µM (≈ 24.8 µg/mL)
[3]; 25 μg/mL Vancomycin - 24 h
  MIC Assay VRE Strains: UCD-3 van25: 11.4 µM
[3]; No vancomycin - 16 h
  MIC Assay VRE Strains: UCD-3 van0: 5.7 µM (≈ 6.23 µg/mL)
[4]; 25 μg/mL Vancomycin - 24 h
  MIC Assay VRE Strains: BM4147 van25: 22.7 µM
[4]; No vancomycin - 16 h
  MIC Assay VRE Strains: BM4147 van0: 22.7 µM (≈ 24.8 µg/mL)
